Source: patent publication US9181218B2, “Compounds for improved stem cell differentiation into hepatocytes” (Hoffmann-La Roche Inc., priority 2013, dated 2015)

Test system: interferon-stimulated genes (ISGs)
Test: Microarray analysis of iCell Hepatocytes treated with the compound of example 1
Format: cell-based, Human
Source text: iCell Hepatocytes treated with the compound of example 1 results in the up and down-regulation of a host of genes; including a kinetic effect on interferon-stimulated gene (ISGs) expression. See FIGS. 15-I and 15-II, 16-I and 16-II and 18 and Table 1.

O=C(NCc1cccc(F)c1)c1cccc2nc(-c3c(NC[C@@H](O)c4ccccc4)cc[nH]c3=O)[nH]c12 [Example 1, 2-[4-((S)-2-hydroxy-2-phenyl-ethylamino)-2-oxo-1,2-dihydro-pyridin-3-yl]-3H-benzoimidazole-4-carboxylic acid 3-fluoro-benzylamide]
IFITM2 Raw Est Fold Change (24 HOUR): −1.90
IFITM3 Raw Est Fold Change (24 HOUR): −1.36
IFNGR1 Raw Est Fold Change (24 HOUR): −2.46
IGHM Raw Est Fold Change (24 HOUR): −2.00
IL6 Raw Est Fold Change (24 HOUR): −4.57
IL6ST Raw Est Fold Change (24 HOUR): −1.25
IL8 Raw Est Fold Change (24 HOUR): −4.32
IL28RA Raw Est Fold Change (24 HOUR): 1.28
IMPA2 Raw Est Fold Change (24 HOUR): −1.80
IQGAP1 Raw Est Fold Change (24 HOUR): −1.70
IRF3 Raw Est Fold Change (24 HOUR): 1.26
IRF7 Raw Est Fold Change (24 HOUR): −3.86
ISG20 Raw Est Fold Change (24 HOUR): −1.70
ISGF3G Raw Est Fold Change (24 HOUR): −1.37
ITGA2 Raw Est Fold Change (24 HOUR): −1.94
JAK1 Raw Est Fold Change (24 HOUR): −1.17
JAK2 Raw Est Fold Change (24 HOUR): −1.29
JUNB Raw Est Fold Change (24 HOUR): −4.94
KDELR2 Raw Est Fold Change (24 HOUR): −1.19
KIAA0040 Raw Est Fold Change (24 HOUR): −5.04
KPNB1 Raw Est Fold Change (24 HOUR): −1.12
LEPR Raw Est Fold Change (24 HOUR): 2.89
LIFR Raw Est Fold Change (24 HOUR): 1.33
LRG1 Raw Est Fold Change (24 HOUR): −2.10
LRP4 Raw Est Fold Change (24 HOUR): −2.17
MAFB Raw Est Fold Change (24 HOUR): 2.60
MAFF Raw Est Fold Change (24 HOUR): −2.09
MAP3K8 Raw Est Fold Change (24 HOUR): −3.81
MCL1 Raw Est Fold Change (24 HOUR): −1.16
MLKL Raw Est Fold Change (24 HOUR): −1.78
MSR1 Raw Est Fold Change (24 HOUR): −2.06
MT1M Raw Est Fold Change (24 HOUR): −3.35
MT1X Raw Est Fold Change (24 HOUR): −6.73
MTHFD2L Raw Est Fold Change (24 HOUR): −2.20
MTMR1 Raw Est Fold Change (24 HOUR): −1.14
MYD88 Raw Est Fold Change (24 HOUR): 1.15
MYT1 Raw Est Fold Change (24 HOUR): −3.59
N4BP1 Raw Est Fold Change (24 HOUR): −1.40
NFE2 Raw Est Fold Change (24 HOUR): −8.28
NFKBIA Raw Est Fold Change (24 HOUR): −1.38
NPAS2 Raw Est Fold Change (24 HOUR): −2.77
NUB1 Raw Est Fold Change (24 HOUR): −1.47
PADI2 Raw Est Fold Change (24 HOUR): 2.66
PCGF2 Raw Est Fold Change (24 HOUR): 1.44
PCMT1 Raw Est Fold Change (24 HOUR): −1.10
PCTK2 Raw Est Fold Change (24 HOUR): −1.85
PCTK3 Raw Est Fold Change (24 HOUR): 1.59
PDGFA Raw Est Fold Change (24 HOUR): 1.23
PDGFRL Raw Est Fold Change (24 HOUR): −1.86
PDK1 Raw Est Fold Change (24 HOUR): −1.48
PEX26 Raw Est Fold Change (24 HOUR): 1.29
PIM3 Raw Est Fold Change (24 HOUR): −2.56
PLOD2 Raw Est Fold Change (24 HOUR): −1.22
PLSCR1 Raw Est Fold Change (24 HOUR): −3.34
PNRC1 Raw Est Fold Change (24 HOUR): −2.42
PPIC Raw Est Fold Change (24 HOUR): −1.23
PPP1R3D Raw Est Fold Change (24 HOUR): −1.49
PSCD1 Raw Est Fold Change (24 HOUR): −1.21
PSMA2 Raw Est Fold Change (24 HOUR): 1.27
PSMB9 Raw Est Fold Change (24 HOUR): −1.86
PTEN Raw Est Fold Change (24 HOUR): 1.23
RAB27A Raw Est Fold Change (24 HOUR): −2.33
RANBP1 Raw Est Fold Change (24 HOUR): 1.13
RBCK1 Raw Est Fold Change (24 HOUR): 1.34
RBL1 Raw Est Fold Change (24 HOUR): −4.92
RBMS1 Raw Est Fold Change (24 HOUR): −1.38
RHOH Raw Est Fold Change (24 HOUR): 5.26
RXRA Raw Est Fold Change (24 HOUR): 1.46
SAT Raw Est Fold Change (24 HOUR): −1.57
SDC2 Raw Est Fold Change (24 HOUR): 1.96
SERPINB9 Raw Est Fold Change (24 HOUR): −1.86
SFPQ Raw Est Fold Change (24 HOUR): −1.39
SFTPC Raw Est Fold Change (24 HOUR): −1.66
SLC15A2 Raw Est Fold Change (24 HOUR): −1.58
SLC25A28 Raw Est Fold Change (24 HOUR): −1.54
SLC25A30 Raw Est Fold Change (24 HOUR): 1.53
SMAD3 Raw Est Fold Change (24 HOUR): −1.19
SOAT2 Raw Est Fold Change (24 HOUR): 4.03
SOCS1 Raw Est Fold Change (24 HOUR): −9.88
SOCS3 Raw Est Fold Change (24 HOUR): −3.51
SPTLC2 Raw Est Fold Change (24 HOUR): −10.08
SQLE Raw Est Fold Change (24 HOUR): −1.98
SQRDL Raw Est Fold Change (24 HOUR): −1.45
SSBP3 Raw Est Fold Change (24 HOUR): 1.35
STAT1 Raw Est Fold Change (24 HOUR): −2.14
STEAP4 Raw Est Fold Change (24 HOUR): −65.16
TAP1 Raw Est Fold Change (24 HOUR): −1.60
TAP2 Raw Est Fold Change (24 HOUR): −1.54
TBX3 Raw Est Fold Change (24 HOUR): 1.42
TCF7L2 Raw Est Fold Change (24 HOUR): −1.29
TEAD4 Raw Est Fold Change (24 HOUR): −2.33
TFPI Raw Est Fold Change (24 HOUR): −1.38
THBD Raw Est Fold Change (24 HOUR): −9.02
THBS1 Raw Est Fold Change (24 HOUR): −1.44
TMEM2 Raw Est Fold Change (24 HOUR): −1.35
TMEM49 Raw Est Fold Change (24 HOUR): −2.07
TMEM67 Raw Est Fold Change (24 HOUR): −4.34
TNFSF13B Raw Est Fold Change (24 HOUR): 1.36
TRIM14 Raw Est Fold Change (24 HOUR): 1.36
TRIM26 Raw Est Fold Change (24 HOUR): 1.56
TXNIP Raw Est Fold Change (24 HOUR): −1.37
UBE2S Raw Est Fold Change (24 HOUR): −1.40
USP12 Raw Est Fold Change (24 HOUR): −1.96
USP25 Raw Est Fold Change (24 HOUR): −1.22
VAT1 Raw Est Fold Change (24 HOUR): 1.21
YWHAE Raw Est Fold Change (24 HOUR): −1.11
ZFYVE26 Raw Est Fold Change (24 HOUR): 1.31
ZNF24 Raw Est Fold Change (24 HOUR): −1.16
ZNF295 Raw Est Fold Change (24 HOUR): −1.84
ABHD5 Raw Est Fold Change (DAY 7): −2.05
ACSL1 Raw Est Fold Change (DAY 7): 1.78
ADM Raw Est Fold Change (DAY 7): −3.85
AGXT Raw Est Fold Change (DAY 7): 2.54
AHR Raw Est Fold Change (DAY 7): −2.08
AKR1B1 Raw Est Fold Change (DAY 7): −3.52
AKT3 Raw Est Fold Change (DAY 7): −5.29
ALCAM Raw Est Fold Change (DAY 7): −1.46
ALDH1A1 Raw Est Fold Change (DAY 7): 1.54
AMPH Raw Est Fold Change (DAY 7): −21.01
APOL6 Raw Est Fold Change (DAY 7): 1.36
ARHGDIB Raw Est Fold Change (DAY 7): −3.40
